Experimental data published in ChEMBL document CHEMBL3580534, “Antibacterial Biphenanthrenes from the Fibrous Roots of Bletilla striata” (2015).
Converted amounts (≈) assume the structure as drawn.

Tested on: Enterococcus faecalis
Assay: Antimicrobial activity against Enterococcus faecalis ATCC 29212 assessed as complete prevention of visible growth after incubation at 37 degC for 18 to 20 hrs
Type: functional

Going from `COc1ccc2c(ccc3c(-c4cc5c(cc4OC)-c4c(cc(O)cc4OC)CC5)c(O)cc(OC)c32)c1` to `COc1cc(O)c2c(c1)CCc1cc(O)c(-c3c(O)cc(OC)c4c3ccc3cc(OC)ccc34)cc1-2`, the MIC falls from > 128 µg/mL to 64 µg/mL (≈ 129 µM).

Compared with `CC1(C)S[C@@H]2[C@H](NC(=O)[C@H](N)c3ccccc3)C(=O)N2[C@H]1C(=O)O` [AMPICILLIN], `COc1cc(O)c(-c2c(O)cc(OC)c3c2ccc2cc(O)ccc23)c2ccc3cc(O)ccc3c12` [CIRRHOPETALANTHIN] is 4-fold higher in MIC: 4 µg/mL (≈ 11.4 µM) for the first, 16 µg/mL (≈ 33.4 µM) for the second.

First: COc1ccc2c(ccc3c(-c4c(O)cc(OC)c5c4CCc4cc(O)ccc4-5)c(O)cc(OC)c32)c1
Second: COc1c(O)ccc2c1ccc1c(-c3c(O)cc(OC)c4c3ccc3c(OC)c(O)ccc34)c(O)cc(OC)c12
The MIC of the first is 16-fold lower: 4 µg/mL (≈ 8.09 µM) for the first, 64 µg/mL (≈ 119 µM) for the second.

Tested on: Staphylococcus epidermidis
Assay: Antimicrobial activity against Staphylococcus epidermidis CMCC 26069 assessed as complete prevention of visible growth after incubation at 37 degC for 18 to 20 hrs
Type: functional

First: COc1ccc2c(ccc3c(-c4cc5c(cc4OC)-c4c(cc(O)cc4OC)CC5)c(O)cc(OC)c32)c1
Second: COc1cc(O)c2c(c1)CCc1cc(O)c(-c3c(O)cc(OC)c4c3ccc3cc(OC)ccc34)cc1-2
The MIC of the first is higher: > 128 µg/mL for the first, 8 µg/mL (≈ 16.2 µM) for the second.

Compared with `CC1(C)S[C@@H]2[C@H](NC(=O)[C@H](N)c3ccccc3)C(=O)N2[C@H]1C(=O)O` [AMPICILLIN], `COc1cc(O)c(-c2c(O)cc(OC)c3c2ccc2cc(O)ccc23)c2ccc3cc(O)ccc3c12` [CIRRHOPETALANTHIN] is 2-fold higher in MIC: 8 µg/mL (≈ 22.9 µM) for the first, 16 µg/mL (≈ 33.4 µM) for the second.

Compared with `COc1ccc2c(ccc3c(-c4c(O)cc(OC)c5c4CCc4cc(O)ccc4-5)c(O)cc(OC)c32)c1`, `COc1c(O)ccc2c1ccc1c(-c3c(O)cc(OC)c4c3ccc3c(OC)c(O)ccc34)c(O)cc(OC)c12` is 2-fold higher in MIC: 4 µg/mL (≈ 8.09 µM) for the first, 8 µg/mL (≈ 14.9 µM) for the second.

Tested on: Staphylococcus aureus
Assay: Antimicrobial activity against methicillin-resistant Staphylococcus aureus ATCC 43300 assessed as complete prevention of visible growth after incubation at 37 degC for 18 to 20 hrs
Type: functional

Going from `COc1ccc2c(ccc3c(-c4cc5c(cc4OC)-c4c(cc(O)cc4OC)CC5)c(O)cc(OC)c32)c1` to `COc1cc(O)c2c(c1)CCc1cc(O)c(-c3c(O)cc(OC)c4c3ccc3cc(OC)ccc34)cc1-2`, the MIC falls from > 128 µg/mL to 8 µg/mL (≈ 16.2 µM).

`CC1(C)S[C@@H]2[C@H](NC(=O)[C@H](N)c3ccccc3)C(=O)N2[C@H]1C(=O)O` [AMPICILLIN] and `COc1cc(O)c(-c2c(O)cc(OC)c3c2ccc2cc(O)ccc23)c2ccc3cc(O)ccc3c12` [CIRRHOPETALANTHIN] cannot be ordered by MIC: > 8 µg/mL for the first, 16 µg/mL (≈ 33.4 µM) for the second.

First: COc1ccc2c(ccc3c(-c4c(O)cc(OC)c5c4CCc4cc(O)ccc4-5)c(O)cc(OC)c32)c1
Second: COc1c(O)ccc2c1ccc1c(-c3c(O)cc(OC)c4c3ccc3c(OC)c(O)ccc34)c(O)cc(OC)c12
The MIC of the first is 4-fold lower: 4 µg/mL (≈ 8.09 µM) for the first, 16 µg/mL (≈ 29.7 µM) for the second.

Tested on: Bacillus subtilis
Assay: Antimicrobial activity against Bacillus subtilis CGMCC 1.1470 assessed as complete prevention of visible growth after incubation at 37 degC for 18 to 20 hrs
Type: functional

First: COc1ccc2c(ccc3c(-c4cc5c(cc4OC)-c4c(cc(O)cc4OC)CC5)c(O)cc(OC)c32)c1
Second: COc1cc(O)c2c(c1)CCc1cc(O)c(-c3c(O)cc(OC)c4c3ccc3cc(OC)ccc34)cc1-2
The MIC of the first is higher: > 128 µg/mL for the first, 16 µg/mL (≈ 32.4 µM) for the second.

First: CC1(C)S[C@@H]2[C@H](NC(=O)[C@H](N)c3ccccc3)C(=O)N2[C@H]1C(=O)O [AMPICILLIN]
Second: COc1cc(O)c(-c2c(O)cc(OC)c3c2ccc2cc(O)ccc23)c2ccc3cc(O)ccc3c12 [CIRRHOPETALANTHIN]
The MIC of the first is higher: > 8 µg/mL for the first, 8 µg/mL (≈ 16.7 µM) for the second.

Compared with `COc1ccc2c(ccc3c(-c4c(O)cc(OC)c5c4CCc4cc(O)ccc4-5)c(O)cc(OC)c32)c1`, `COc1c(O)ccc2c1ccc1c(-c3c(O)cc(OC)c4c3ccc3c(OC)c(O)ccc34)c(O)cc(OC)c12` is 2-fold higher in MIC: 4 µg/mL (≈ 8.09 µM) for the first, 8 µg/mL (≈ 14.9 µM) for the second.

Tested on: Staphylococcus aureus
Assay: Antimicrobial activity against Staphylococcus aureus ATCC 25923 assessed as complete prevention of visible growth after incubation at 37 degC for 18 to 20 hrs
Type: functional

Going from `COc1ccc2c(ccc3c(-c4cc5c(cc4OC)-c4c(cc(O)cc4OC)CC5)c(O)cc(OC)c32)c1` to `COc1cc(O)c2c(c1)CCc1cc(O)c(-c3c(O)cc(OC)c4c3ccc3cc(OC)ccc34)cc1-2`, the MIC falls from > 128 µg/mL to 8 µg/mL (≈ 16.2 µM).

First: CC1(C)S[C@@H]2[C@H](NC(=O)[C@H](N)c3ccccc3)C(=O)N2[C@H]1C(=O)O [AMPICILLIN]
Second: COc1cc(O)c(-c2c(O)cc(OC)c3c2ccc2cc(O)ccc23)c2ccc3cc(O)ccc3c12 [CIRRHOPETALANTHIN]
The MIC of the first is 260-fold lower: 0.125 µg/mL (≈ 0.358 µM) for the first, 32 µg/mL (≈ 66.9 µM) for the second.

Compared with `COc1ccc2c(ccc3c(-c4c(O)cc(OC)c5c4CCc4cc(O)ccc4-5)c(O)cc(OC)c32)c1`, `COc1c(O)ccc2c1ccc1c(-c3c(O)cc(OC)c4c3ccc3c(OC)c(O)ccc34)c(O)cc(OC)c12` is 4-fold higher in MIC: 4 µg/mL (≈ 8.09 µM) for the first, 16 µg/mL (≈ 29.7 µM) for the second.

Tested on: Proteus vulgaris
Assay: Antimicrobial activity against Proteus vulgaris CMCC 49027 assessed as complete prevention of visible growth after incubation at 37 degC for 18 to 20 hrs
Type: functional

`COc1ccc2c(ccc3c(-c4cc5c(cc4OC)-c4c(cc(O)cc4OC)CC5)c(O)cc(OC)c32)c1` and `COc1cc(O)c2c(c1)CCc1cc(O)c(-c3c(O)cc(OC)c4c3ccc3cc(OC)ccc34)cc1-2` cannot be ordered by MIC: > 128 µg/mL for the first, > 128 µg/mL for the second.

`CC1(C)S[C@@H]2[C@H](NC(=O)[C@H](N)c3ccccc3)C(=O)N2[C@H]1C(=O)O` [AMPICILLIN] and `COc1cc(O)c(-c2c(O)cc(OC)c3c2ccc2cc(O)ccc23)c2ccc3cc(O)ccc3c12` [CIRRHOPETALANTHIN] cannot be ordered by MIC: > 8 µg/mL for the first, > 128 µg/mL for the second.

`COc1ccc2c(ccc3c(-c4c(O)cc(OC)c5c4CCc4cc(O)ccc4-5)c(O)cc(OC)c32)c1` and `COc1c(O)ccc2c1ccc1c(-c3c(O)cc(OC)c4c3ccc3c(OC)c(O)ccc34)c(O)cc(OC)c12` cannot be ordered by MIC: > 128 µg/mL for the first, > 128 µg/mL for the second.

Tested on: Staphylococcus aureus
Assay: Antimicrobial activity against ampicillin-resistant Staphylococcus aureus ATCC 29213 assessed as complete prevention of visible growth after incubation at 37 degC for 18 to 20 hrs
Type: functional

First: COc1ccc2c(ccc3c(-c4cc5c(cc4OC)-c4c(cc(O)cc4OC)CC5)c(O)cc(OC)c32)c1
Second: COc1cc(O)c2c(c1)CCc1cc(O)c(-c3c(O)cc(OC)c4c3ccc3cc(OC)ccc34)cc1-2
The MIC of the first is higher: > 128 µg/mL for the first, 8 µg/mL (≈ 16.2 µM) for the second.

First: CC1(C)S[C@@H]2[C@H](NC(=O)[C@H](N)c3ccccc3)C(=O)N2[C@H]1C(=O)O [AMPICILLIN]
Second: COc1cc(O)c(-c2c(O)cc(OC)c3c2ccc2cc(O)ccc23)c2ccc3cc(O)ccc3c12 [CIRRHOPETALANTHIN]
The MIC of the first is 2-fold lower: 8 µg/mL (≈ 22.9 µM) for the first, 16 µg/mL (≈ 33.4 µM) for the second.

Going from `COc1ccc2c(ccc3c(-c4c(O)cc(OC)c5c4CCc4cc(O)ccc4-5)c(O)cc(OC)c32)c1` to `COc1c(O)ccc2c1ccc1c(-c3c(O)cc(OC)c4c3ccc3c(OC)c(O)ccc34)c(O)cc(OC)c12`, the MIC rises from 2 µg/mL (≈ 4.04 µM) to 8 µg/mL (≈ 14.9 µM) (4-fold).

Tested on: Escherichia coli
Assay: Antimicrobial activity against Escherichia coli ATCC 35218 assessed as complete prevention of visible growth after incubation at 37 degC for 18 to 20 hrs
Type: functional

`COc1ccc2c(ccc3c(-c4cc5c(cc4OC)-c4c(cc(O)cc4OC)CC5)c(O)cc(OC)c32)c1` and `COc1cc(O)c2c(c1)CCc1cc(O)c(-c3c(O)cc(OC)c4c3ccc3cc(OC)ccc34)cc1-2` cannot be ordered by MIC: > 128 µg/mL for the first, > 128 µg/mL for the second.

`CC1(C)S[C@@H]2[C@H](NC(=O)[C@H](N)c3ccccc3)C(=O)N2[C@H]1C(=O)O` [AMPICILLIN] and `COc1cc(O)c(-c2c(O)cc(OC)c3c2ccc2cc(O)ccc23)c2ccc3cc(O)ccc3c12` [CIRRHOPETALANTHIN] cannot be ordered by MIC: > 8 µg/mL for the first, > 128 µg/mL for the second.

`COc1ccc2c(ccc3c(-c4c(O)cc(OC)c5c4CCc4cc(O)ccc4-5)c(O)cc(OC)c32)c1` and `COc1c(O)ccc2c1ccc1c(-c3c(O)cc(OC)c4c3ccc3c(OC)c(O)ccc34)c(O)cc(OC)c12` cannot be ordered by MIC: > 128 µg/mL for the first, > 128 µg/mL for the second.
